Test results: ChEMBL document CHEMBL4261525, “Design, facile synthesis and anthelmintic activity of new O-substituted 6-methoxybenzothiazole-2-carbamates. Part II” (2017)

Tests used:
Type in all cases: functional
Paramphistomum [1] = assay: Anthelmintic activity against Paramphistomum assessed as mortality at 80 ug/ml after 1 hr relative to control
Paramphistomum [2] = assay: Anthelmintic activity against Paramphistomum assessed as mortality at 40 ug/ml after 2 hrs relative to control
Paramphistomum [3] = assay: Anthelmintic activity against Paramphistomum assessed as mortality at 80 ug/ml after 6 hrs relative to control
Paramphistomum [4] = assay: Anthelmintic activity against Paramphistomum assessed as mortality at 80 ug/ml after 2 hrs relative to control
Paramphistomum [5] = assay: Anthelmintic activity against Paramphistomum assessed as mortality at 40 ug/ml after 1 hr relative to control
Paramphistomum [6] = assay: Anthelmintic activity against Paramphistomum assessed as mortality at 40 ug/ml after 4 hrs relative to control
Paramphistomum [7] = assay: Anthelmintic activity against Paramphistomum assessed as mortality at 80 ug/ml after 4 hrs relative to control
Paramphistomum [8] = assay: Anthelmintic activity against Paramphistomum assessed as mortality at 40 ug/ml after 6 hrs relative to control

Row | SMILES | mortality at 80 µg/mL (Paramphistomum [1]) | mortality at 40 µg/mL (Paramphistomum [2]) | mortality at 80 µg/mL (Paramphistomum [3]) | mortality at 80 µg/mL (Paramphistomum [4]) | mortality at 40 µg/mL (Paramphistomum [5]) | mortality at 40 µg/mL (Paramphistomum [6]) | mortality at 80 µg/mL (Paramphistomum [7]) | mortality at 40 µg/mL (Paramphistomum [8])
1 | COC(=O)Nc1nc2ccc(OCc3nnc(SCc4ccccc4)o3)cc2s1 | 30% | 30% | 100% | 60% | 30% | 50% | 90% | 60%
2 | COC(=O)Nc1nc2ccc(OCc3nnc(SC)o3)cc2s1 | 10% | 10% | 40% | 20% | 10% | 20% | 30% | 20%
3 | CCSc1nnc(COc2ccc3nc(NC(=O)OC)sc3c2)o1 | 20% | 40% | 80% | 60% | 10% | 50% | 60% | 80%
4 | COC(=O)Nc1nc2ccc(OCc3nnc(S)n3-c3ccc(Cl)cc3)cc2s1 | 20% | 20% | 80% | 20% | 10% | 30% | 50% | 50%
5 | COC(=O)Nc1nc2ccc(OCc3nnc(SCC(=O)c4ccccc4)o3)cc2s1 | 30% | 20% | 70% | 40% | 10% | 20% | 50% | 30%
6 | COC(=O)Nc1nc2ccc(OCc3nnc(S)n3-c3ccc(C)cc3)cc2s1 | 0% | 0% | 0% | 0% | 0% | 0% | 0% | 0%
7 | COC(=O)Nc1nc2ccc(OCc3nnc(SCC(=O)c4ccc(Br)cc4)o3)cc2s1 | 60% | 40% |  | 100% | 20% | 60% |  | 60%
8 | COC(=O)Nc1nc2ccc(OCc3nnc(SC(=O)CCl)o3)cc2s1 | 10% | 10% | 50% | 30% | 10% | 20% | 30% | 20%
9 | COC(=O)Nc1nc2ccc(OCc3nnc(SCC(=O)c4ccc(Cl)cc4)o3)cc2s1 | 50% | 40% |  | 70% | 40% | 40% | 100% | 40%
10 | CCOC(=O)CSc1nnc(COc2ccc3nc(NC(=O)OC)sc3c2)o1 | 20% | 20% | 60% | 30% | 10% | 30% | 50% | 30%
11 | COC(=O)Nc1nc2ccc(OCc3nnc(S)n3-c3ccccc3)cc2s1 | 0% | 0% | 0% | 0% | 0% | 0% | 0% | 0%
12 | C=CCSc1nnc(COc2ccc3nc(NC(=O)OC)sc3c2)o1 | 20% | 30% |  | 40% | 20% | 50% | 100% | 70%
13 | O=C(Nc1cc(Cl)cc(Cl)c1O)c1c(O)c(Cl)cc(Cl)c1Cl [OXYCLOZANIDE] | 50% | 70% |  | 100% | 30% | 100% |  | 
